Assay results as given in patent EP1146873B1, “ANTI-ANDROGENS AND METHODS FOR TREATING DISEASE” (SMITHKLINE BEECHAM CORPORATION, priority 1999, dated 2000).
Values belong to the compound of their own block, whether it stands above or below them.

Legend:
[1] = test system: cortisol; experiment: Plasma cortisol concentration in male dogs; assay type: in vivo; details: for plasma cortisol concentration: single intravenous dose of approximately 26 umoles/kg
Source text: (§1) This effect was reversible and was associated with a reduction in serum concentration of luteinizing hormone (LH).

[2] = test system: testosterone; experiment: Serum/plasma testosterone concentration in male dogs after oral or intravenous dosing; assay type: in vivo; details: for plasma concentration of testosterone: single intravenous dose of approximately 26 umoles/kg
[3] = test system: estradiol; experiment: Plasma estradiol concentration in male dogs; assay type: in vivo; details: for plasma estradiol concentration: single intravenous dose of approximately 26 umoles/kg
Source text: as §1

[4] = test system: testosterone; experiment: Plasma testosterone concentration in male rats after oral dosing; assay type: in vivo; details: for plasma testosterone concentration: four daily oral doses ≥100 mg/kg, 4 hours after the last dose
Procedure: (§2) Four daily oral doses ≥100 mg/kg (S)-(-)-N-(α-Ethylbenzyl)-3-(3-carboxy)propoxy-2-phenylquinoline-4-carboxamide or (S)-(-)-N-(α-Ethylbenzyl)-3-carboxymethoxy-2-phenylquinoline-4-carboxamide reduced the plasma testosterone concentration of male rats when measured at 4 hours after the last dose. […] Reductions in plasma testosterone also occurred in male rats following single oral doses of 30 to 1000 mg/kg (S)-(-)-N-(α-Ethylbenzyl)-3-carboxymethoxy-2-phenylquinoline-4-carboxamide. Stimulation of testosterone production in vivo by a LH agonist (human chorionic gonadotropin) was not blocked by a single oral dose of 1000 mg/kg (S)-(-)-N-(α-Ethylbenzyl)-3-carboxymethoxy-2-phenylquinoline-4-carboxamide in male rats.

[5] = test system: testosterone production; experiment: Stimulation of testosterone production in vivo by a LH agonist (human chorionic gonadotropin) in male rats; details: single oral dose of 1000 mg/kg
Procedure: as §2

[6] = test system: LH; experiment: Plasma LH concentration in male rats after oral dosing; assay type: in vivo; details: four daily oral doses of 300 mg/kg, 4 hours after the last dose
Procedure: as §2

[7] = test system: reproductive organs; experiment: Once daily oral administration for 1 month, reproductive organ effects in male rats; assay type: in vivo; details: 0.1 to 1000 mg/kg per day
Procedure: (§3) Once daily oral administration of ((S)-(-)-N-(α-Ethylbenzyl)-3-hydroxy-2-phenylquinoline-4-carboxamide) for 1 month to male rats or for 2 weeks to male mice had no effect on the weights and/or histologic appearance of the reproductive organs. The daily doses ranged from 0.1 to 1000 mg/kg per day.

[8] = test system: testes and prostate; experiment: Once daily oral administration for 1 month, reproductive organ effects in male beagle dogs; assay type: in vivo
Procedure: Once daily oral administration of ((S)-(-)-N-(α-Ethylbenzyl)-3-hydroxy-2-phenylquinoline-4-carboxamide) for 1 month to sexually mature male beagle dogs (12 - 16 months of age) produced decreases in the size and/or weight of testes and prostate. […] The incidence and severity of these changes were dose-related with 1 of 3, 2 of 3, 2 of 3, 6 of 6 and 3 of 3 male dogs affected at doses of 0.3, 3, 30, 300 or 1000 mg/kg per day, respectively.

[9] = target: T1, CYP17A1 (Canis lupus familiaris, UniProt A0A8I3PR85); experiment: Enzyme inhibition in lysed dog Leydig cells; assay type: biochemical
T1 construct: using lysed dog Leydig cells; from tissue; host or cells: lysate of primary Leydig cells isolated from dog testes
T1 sequence (A0A8I3PR85 19-509): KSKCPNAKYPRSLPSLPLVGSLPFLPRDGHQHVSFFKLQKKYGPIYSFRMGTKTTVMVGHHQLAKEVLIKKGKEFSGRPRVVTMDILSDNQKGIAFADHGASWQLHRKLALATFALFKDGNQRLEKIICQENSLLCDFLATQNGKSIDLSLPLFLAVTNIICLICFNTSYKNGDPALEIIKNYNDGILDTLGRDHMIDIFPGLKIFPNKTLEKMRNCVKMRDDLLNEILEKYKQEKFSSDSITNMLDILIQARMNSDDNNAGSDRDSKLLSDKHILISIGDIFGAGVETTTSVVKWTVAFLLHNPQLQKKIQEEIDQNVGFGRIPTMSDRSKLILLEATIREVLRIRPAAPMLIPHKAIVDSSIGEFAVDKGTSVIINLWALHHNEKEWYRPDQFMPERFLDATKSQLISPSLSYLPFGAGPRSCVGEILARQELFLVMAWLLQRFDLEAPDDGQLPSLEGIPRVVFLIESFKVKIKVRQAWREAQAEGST
Procedure: This effect occurred at incubation concentrations between 10 and 100 uM. […] Neither (S)-(-)-N-(α-Ethylbenzyl)-3-carboxymethoxy-2-phenylquinoline-4-carboxamide nor (S)-(-)-N-(α-Ethylbenzyl)-3-(3-carboxy)propoxy-2-phenylquinoline-4-carboxamide inhibited testosterone synthesis in Leydig cells isolated from the testis of the rat at the highest incubation concentration tested (300 uM). In contrast, (+)-(R)-3-[3-(4-Phenyl-4-N-methylacetamidopiperidin-1-yl)propyl]-3-(3,4-dichlorophenyl)-1-benzoylpiperidine, and (S)-(-)-N-(α-Ethylbenzyl)-3-[(4-methylpiperazin-1-yl)methyl]-2-phenylquinoline-4-carboxamide inhibited testosterone synthesis of isolated rat Leydig cells at incubation concentrations between 3 and 300 uM.

[10] = test system: luteinizing hormone (LH); experiment: Serum luteinizing hormone concentration in male dogs; assay type: in vivo; details: single oral dose of 300 mg/kg
Source text: as §1

[11] = test system: androstenedione; experiment: Plasma androstenedione concentration in male dogs; assay type: in vivo; details: single oral dose of 300 mg/kg
Source text: as §1

[12] = test system: testosterone; experiment: Serum/plasma testosterone concentration in male dogs after oral or intravenous dosing; assay type: in vivo
Procedure: The ((S)-(-)-N-(α-Ethylbenzyl)-3-hydroxy-2-phenylquinoline-4-carboxamide)-dependent changes in the testes and prostate of male dogs were associated with reductions in serum concentration of testosterone. Testosterone concentrations were reduced after either a single oral dose of 300 mg/kg (3 of 3 dogs) or 25 daily oral doses of 0.3 (1 of 3 dogs), 3 (2 of 3 dogs) or 300 mg/kg ((S)-(-)-N-(α-Ethylbenzyl)-3-hydroxy-2-phenylquinoline-4-carboxamide) (3 of 3 dogs). Serum testosterone was measured on blood samples obtained every 2 hours for 24 hours after the single dose and every 20 minutes for 4 hours beginning approximately 2 hours after the last of the 25 daily doses. The reductions in serum testosterone observed after one or 25 daily doses of 300 mg/kg ((S)-(-)-N-(α-Ethylbenzyl)-3-hydroxy-2-phenylquinoline-4-carboxamide) were reversible in all dogs (6 of 6) within one week after the cessation of dosing.
as §1

[13] = test system: reproductive organs; experiment: Once daily oral administration for 2 weeks, reproductive organ effects in male mice; assay type: in vivo; details: 0.1 to 1000 mg/kg per day
Procedure: as §3

[14] = once daily oral, 1 month, male beagle dogs
[15] = single oral dose of 300 mg/kg, male dogs

Structure (SMILES): CC(=O)N(C)C1(c2ccccc2)CCN(CCC[C@]2(c3ccc(Cl)c(Cl)c3)CCCN(C(=O)c3ccccc3)C2)CC1 [(+)-(R)-3-[3-(4-Phenyl-4-N-methylacetamidopiperidin-1-yl)propyl]-3-(3,4-dichlorophenyl)-1-benzoylpiperidine]
plasma cortisol concentration [1]: did not lower | plasma concentration of testosterone [2]: reduced | plasma estradiol concentration [3]: no effect

Structure (SMILES): CC[C@H](NC(=O)c1c(OCCCC(=O)O)c(-c2ccccc2)nc2ccccc12)c1ccccc1 [(S)-(-)-N-(α-Ethylbenzyl)-3-(3-carboxy)propoxy-2-phenylquinoline-4-carboxamide]
plasma testosterone concentration [4]: reduced

Structure (SMILES): CC[C@H](NC(=O)c1c(OCCCN2CCN(c3ccccc3OC)CC2)c(-c2ccccc2)nc2ccccc12)c1ccccc1 [(S)-(-)-N-(α-Ethylbenzyl)-3-[3-[4-(2-methoxyphenyl)piperazin-1-yl]propoxy]-2-phenylquinoline-4-carboxamide]
plasma cortisol concentration [1]: did not lower | plasma concentration of testosterone [2]: reduced | plasma estradiol concentration [3]: no effect

Structure (SMILES): CC[C@H](NC(=O)c1c(OCC(=O)O)c(-c2ccccc2)nc2ccccc12)c1ccccc1 [(S)-(-)-N-(α-Ethylbenzyl)-3-carboxymethoxy-2-phenylquinoline-4-carboxamide]
plasma concentration of testosterone [2]: reduced | plasma testosterone concentration [4]: reduced | plasma testosterone ([4]; single oral doses of 30 to 1000 mg/kg): Reductions | stimulation of testosterone production in vivo by a LH agonist (human chorionic gonadotropin) [5]: not blocked | plasma LH concentration [6]: reduced

inhibition of the enzyme (CYP17A1) in the testosterone synthetic pathway [9]: inhibition
Structure (SMILES): CC[C@H](NC(=O)c1c(O)c(-c2ccccc2)nc2ccccc12)c1ccccc1 [(S)-(-)-N-(α-Ethylbenzyl)-3-hydroxy-2-phenylquinoline-4-carboxamide]
plasma concentration of cortisol ([1]; single oral dose of 300 mg/kg): no effect | weights and/or histologic appearance of the reproductive organs [7]: no effect | plasma concentration of testosterone [2]: reduced | duration of decrease in serum testosterone ([2]; single oral dose of 300 mg/kg, post-dose): at least 24 hours | male dogs affected (testes and prostate changes) ([8]; 0.3 mg/kg per day oral, 1 month): 1 of 3 | male dogs affected (testes and prostate changes) ([8]; 3 mg/kg per day oral, 1 month): 2 of 3 | male dogs affected (testes and prostate changes) ([8]; 30 mg/kg per day oral, 1 month): 2 of 3 | male dogs affected (testes and prostate changes) ([8]; 300 mg/kg per day oral, 1 month): 6 of 6 | male dogs affected (testes and prostate changes) ([8]; 1000 mg/kg per day oral, 1 month): 3 of 3 | reversibility of testes and prostate changes ([8]; male beagle dogs): demonstrated | histologic evaluation of prostate [8, 14]: diffuse atrophy of the prostate gland | histologic evaluation of testes [8, 14]: degeneration of the seminiferous epithelium of the testes with depletion of spermatogonia, spermatocytes and spermatids | size and/or weight of testes and prostate ([8]; once daily oral, 1 month, sexually mature male beagle dogs): decreases | plasma concentration of estradiol ([3]; single oral dose of 300 mg/kg): no effect | serum concentration of luteinizing hormone (LH) [10]: reduction | plasma concentration of androstenedione [11]: reduced | dogs with reduced serum testosterone concentration ([12]; 25 daily oral doses of 0.3 mg/kg): 1 of 3 | dogs with reduced serum testosterone concentration ([12]; 25 daily oral doses of 3 mg/kg): 2 of 3 | dogs with reduced serum testosterone concentration ([12]; 25 daily oral doses of 300 mg/kg): 3 of 3 | dogs in which reductions in serum testosterone were reversible ([12]; after one or 25 daily doses of 300 mg/kg, within one week after cessation of dosing): 6 of 6 | dogs with reduced serum testosterone concentration ([12]; single oral dose of 300 mg/kg): 3 of 3 | reversibility of decrease in serum testosterone [12, 15]: reversible | serum concentration of testosterone [12, 15]: rapid and marked decrease | weights and/or histologic appearance of the reproductive organs [13]: no effect
